Measurements reported in patent EP3981777A1, “ANTIVIRAL COMPOUNDS AND POLYMERS” (priority 2020, dated 2022).

Molecular target: T1, DC-SIGN (Homo sapiens, UniProt Q9NNX6)
T1 construct: host or cells: B-THP-1 (Raji B) cells, DC-SIGN+
T1 sequence (Q9NNX6 1-404): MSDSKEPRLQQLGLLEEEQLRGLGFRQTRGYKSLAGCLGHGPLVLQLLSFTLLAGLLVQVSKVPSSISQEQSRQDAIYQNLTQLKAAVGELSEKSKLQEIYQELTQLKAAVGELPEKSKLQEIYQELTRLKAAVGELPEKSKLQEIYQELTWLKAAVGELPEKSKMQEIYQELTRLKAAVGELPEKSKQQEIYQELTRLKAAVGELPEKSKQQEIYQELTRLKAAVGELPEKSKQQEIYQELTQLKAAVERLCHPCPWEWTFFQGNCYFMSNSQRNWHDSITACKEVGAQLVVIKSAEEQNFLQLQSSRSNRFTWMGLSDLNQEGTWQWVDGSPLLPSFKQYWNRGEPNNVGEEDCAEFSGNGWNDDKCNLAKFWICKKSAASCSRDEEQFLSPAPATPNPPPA
Experiment: cell-based

Compound: CO[C@H]1O[C@H](CO)[C@@H](O)[C@H](O)[C@@H]1O [MeMan, methyl α-D-mannoside]
- IC50: 6.5 mM
